Key:
[1] = target: T1, human DGAT-1 enzyme over expressed in Sf9 cell-line (Homo sapiens, UniProt O75907); assay: hDGAT-1 assay (inhibition of [14C]triglyceride formation by microsomes); assay type: biochemical
T1 construct: hDGAT-1 ORF expression clone (RZPD0839C09146 in pDEST vector) was obtained from RZPD, Germany; made in house; host or cells: Sf9 insect cells (baculovirus, Bac-to-Bac); microsomal fraction
T1 sequence (O75907 1-488): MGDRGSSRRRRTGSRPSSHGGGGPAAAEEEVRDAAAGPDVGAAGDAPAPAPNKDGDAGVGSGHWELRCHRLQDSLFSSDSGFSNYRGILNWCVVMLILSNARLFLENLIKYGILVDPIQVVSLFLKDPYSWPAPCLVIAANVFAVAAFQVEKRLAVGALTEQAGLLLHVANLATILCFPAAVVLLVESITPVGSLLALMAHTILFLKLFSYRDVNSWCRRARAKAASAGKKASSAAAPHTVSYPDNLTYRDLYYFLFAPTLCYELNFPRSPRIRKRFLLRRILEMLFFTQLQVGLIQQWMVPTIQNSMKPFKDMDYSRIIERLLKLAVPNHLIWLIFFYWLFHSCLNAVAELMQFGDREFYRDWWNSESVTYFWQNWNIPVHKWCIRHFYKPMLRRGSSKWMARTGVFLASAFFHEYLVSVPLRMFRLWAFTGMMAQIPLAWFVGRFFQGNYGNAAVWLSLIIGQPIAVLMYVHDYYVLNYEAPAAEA
Method: The DGAT-1 assay was designed using human DGAT-1 enzyme over expressed in Sf9 cell-line as described in the reference, European Journal of Pharmacology, 650, 663-672, (2011), the disclosure of which is incorporated by reference for the teaching of the assay.
hDGAT-1 Enzyme preparation: Enzyme was diluted to a working concentration of 1 mg/mL in hDGAT-1 assay buffer, 2.5 μL of the working enzyme stock was used in hDGAT-1 assay (final concentration 25 μg/mL).
The test samples were prepared as follows. A stock solution of 20 mg/mL was prepared for each extract (Extract of Example 1 to Extract of Example 7) in 100% dimethyl sulfoxide (DMSO). The working stock was prepared in hDGAT-1 assay buffer. […]
Three different concentrations for dose response (i.e. 25 μg/mL, 50 μ/mL and 100 μg/mL) were prepared for Extract of Example 1 by serial dilution of stock solution.
60 μL of substrate mix (as described above) was added to a total assay volume of 100 μL. The reaction was started by adding 2.5 μg hDGAT-1 containing microsomal protein and was incubated at 37° C. for 10 min. The reaction was stopped by adding 300 μL of alkaline ethanol stop solution mix (AESSM). The reaction involves the incorporation of radioactive [^14C] oleoyl-CoA into the third hydroxyl group (OH) of 1,2-dioleoyl-sn-glycerol to form the radioactive triglyceride ([^14C] triglyceride) which was then extracted into the upper heptane phase. The radioactive triglyceride product thus formed was separated into the organic phase by adding 600 μL of n-heptane. 250 μL of the upper heptane was added into 4 mL of scintillation fluid and measured using a liquid scintillation counter (Packard; 1600CA) as disintegration per min (dpm) counts. The percentage inhibition was calculated with respect to the vehicle. […]

[2] = test system: high fat diet (HFD) induced obesity model; assay: High fat diet (HFD)-induced body weight gain study in mice; assay type: in vivo; details: Mean ± S.E.M.
Method: A HFD induced body weight gain study in mice was conducted to evaluate the efficacy of the Extract of Example 1.
Male C57BL/6J mice (in-house; Central Animal Facility, Piramal Healthcare Limited, Goregaon, Mumbai, Maharashtra, India) were acclimatized with HFD (60% Kcal, D12492, Research Diets, USA) for two weeks.
A suspension of Extract of Example 1 was prepared in polyethyleneglycol 400 (30%) (PEG 400, Fisher Scientific, India) and 0.5% carboxy methylcellulose (70%) (CMC, Sigma, USA).
The Extract of Example 1 was administered at a dose of 500 mg/kg body-weight orally, once daily. Orlistat (Biocon, India) was used as the standard drug and was administered orally at a dose of 15 mg/kg body weight, twice daily. A separate group of ten mice was fed a low fat diet (LED, 10% kcal, D12450B, Research Diet, USA) as a normal control. Vehicle was administered to the HFD and LFD control groups at dose of 10 mL/kg body weight.
The treatments were continued for a period of sixty days. Body weight and feed intake were monitored daily. The % change in body weight (% increase in body weight from day 1) and the cumulative feed intake data was calculated. On day sixtyone, blood samples (˜200 μL/mice) were collected in heparinised (50 IU/mL) micro-centrifuge tubes under isoflurane anesthesia. Plasma was separated by centrifugation at 10000 rpm at 4° C. for estimation of various plasma biochemistry parameters. The biochemistry analysis was performed on BS-400 autoanalyzer (Mindray, China). Subsequently, the mice were sacrificed and following organs/tissues were dissected out and weighed viz., liver, heart, kidneys, epididymal fat and retroperitoneal fat. All the data was analyzed for statistical significance by one-way ANOVA followed by Dunnet's post-hoc test and values of P<0.05 were considered as significant. All analyses were carried out using GraphPad Prism version 4.00 for Windows (GraphPad Software, San Diego, Calif., USA).

[3] = HFD-fed mice after 60 days treatment, Extract 500 mg/kg once daily, Orlistat 15 mg/kg twice daily, oral
[4] = HFD-fed mice, Day 60, Extract 500 mg/kg orally once daily, Orlistat 15 mg/kg orally twice daily

SMILES | % inhibition of hDGAT-1 ([1]; Table 1, 20 nM) [%] | % inhibition of hDGAT-1 ([1]; Table 1, 0.1 μM) [%] | % inhibition of hDGAT-1 ([1]; Table 2, 20 nM) [%] | % inhibition of hDGAT-1 ([1]; Table 2, 0.1 μM) [%] | Body Weight (g) (Day 0) ([2]; HFD-fed male C57BL/6J mice, baseline Day 0) | Epididymal Fat [2, 3] [g] | Retroperitoneal Fat [2, 3] [g] | % Change in body weight ([2]; HFD-fed mice, % increase in body weight from day 1, 60 days, Extract 500 mg/kg orally once daily, Orlistat 15 mg/kg orally twice daily) [%] | Body Weight (g) (Day 60) [2, 4] | Cumulative Feed intake (g/mice) (Day 60) [2, 4] | Total Fat ([2]; Total fat = Epididymal fat + Retroperitoneal fat, HFD-fed mice after 60 days treatment) [g]
CC1(C)Oc2ncncc2N=C1c1ccc([C@H]2CC[C@@H](CC(=O)O)CC2)cc1 [IN5530, 2-((1s,4s)-4-(4-(7,7-dimethyl-7H-pyrimido [4,5-b][1,4]oxazin-6-yl)phenyl)cyclohexyl)acetic acid] | 46.27 | 66.04 | 48.82 | 74.26 |  |  |  |  |  |  | 
CCCCCCCCCCC[C@@H](C[C@@H]1OC(=O)[C@H]1CCCCCC)OC(=O)[C@H](CC(C)C)NC=O [Orlistat] |  |  |  |  | 26.4 ± 0.4 | 1.07 ± 0.10 | 0.42 ± 0.05 | 16.74 ± 2.70 | 30.9 ± 0.9 | 119.7 ± 4.7 | 1.49 ± 0.15

From US20150050373A1, “HERBAL COMPOSITION FOR THE TREATMENT OF METABOLIC DISORDERS” (PIRAMAL ENTERPRISES LIMITED, priority 2012, published 2015)
